According to the kinase profiling compilation of Christmann-Franck et al. (2016):

Assays:
Assay in all cases: KINOMEscan competition binding
Details in all cases: compound 10.0 µM
EIF2AK1 (human) = EIF2AK1 (human) (UniProt Q9BQI3)
AURKC (human) = AURKC (human) (UniProt Q9UQB9)
NEK4 (human) = NEK4 (human) (UniProt P51957)
SRC (human) = SRC (human) (UniProt P12931)
DCLK3 (human) = DCLK3 (human) (UniProt Q9C098)
NTRK2 (human) = NTRK2 (human) (UniProt Q16620)
RAF1 (human) = RAF1 (human) (UniProt P04049)
MAP4K1 (human) = MAP4K1 (human) (UniProt Q92918)
MAPKAPK5 (human) = MAPKAPK5 (human) (UniProt Q8IW41)
MAPKAPK5 (human), sequence (Q8IW41 whole entry, looked up): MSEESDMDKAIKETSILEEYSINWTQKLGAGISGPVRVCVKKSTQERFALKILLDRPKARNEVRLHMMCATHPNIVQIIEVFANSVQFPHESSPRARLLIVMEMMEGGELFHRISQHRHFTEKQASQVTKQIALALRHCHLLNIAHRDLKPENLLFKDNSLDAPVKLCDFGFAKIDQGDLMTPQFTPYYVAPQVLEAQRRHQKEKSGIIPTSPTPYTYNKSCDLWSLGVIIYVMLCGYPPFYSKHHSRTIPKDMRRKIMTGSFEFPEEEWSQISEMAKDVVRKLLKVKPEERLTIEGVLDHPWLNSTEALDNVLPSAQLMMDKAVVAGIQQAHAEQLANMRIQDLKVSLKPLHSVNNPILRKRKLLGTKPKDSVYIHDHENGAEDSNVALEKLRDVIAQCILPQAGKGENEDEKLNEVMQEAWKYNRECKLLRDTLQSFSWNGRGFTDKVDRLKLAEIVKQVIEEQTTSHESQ

CDK4 CCND1 (human) = CDK4 CCND1 (human) (UniProt P11802+P24385)
CSNK1D (human) = CSNK1D (human) (UniProt P48730)
OXSR1 (human) = OXSR1 (human) (UniProt O95747)
EPHA5 (human) = EPHA5 (human) (UniProt P54756)
CDK7 (human) = CDK7 (human) (UniProt P50613)
CDK7 (human), sequence (P50613 whole entry, looked up): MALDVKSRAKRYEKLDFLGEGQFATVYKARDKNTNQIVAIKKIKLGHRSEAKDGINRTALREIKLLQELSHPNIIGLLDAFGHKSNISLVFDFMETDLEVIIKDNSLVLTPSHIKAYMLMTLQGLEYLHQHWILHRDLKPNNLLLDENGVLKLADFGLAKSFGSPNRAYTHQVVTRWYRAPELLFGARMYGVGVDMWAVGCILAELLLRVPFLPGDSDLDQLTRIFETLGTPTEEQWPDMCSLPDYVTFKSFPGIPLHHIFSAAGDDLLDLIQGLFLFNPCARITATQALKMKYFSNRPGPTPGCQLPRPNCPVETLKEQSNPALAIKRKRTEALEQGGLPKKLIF

AURKA (human) = AURKA (human) (UniProt O14965)
ADCK4 (human) = ADCK4 (human) (UniProt Q96D53)
CSNK1G3 (human) = CSNK1G3 (human) (UniProt Q9Y6M4)
ERBB3 (human) = ERBB3 (human) (UniProt P21860)
CSNK2A2 (human) = CSNK2A2 (human) (UniProt P19784)
CSNK2A2 (human), sequence (P19784 whole entry, looked up): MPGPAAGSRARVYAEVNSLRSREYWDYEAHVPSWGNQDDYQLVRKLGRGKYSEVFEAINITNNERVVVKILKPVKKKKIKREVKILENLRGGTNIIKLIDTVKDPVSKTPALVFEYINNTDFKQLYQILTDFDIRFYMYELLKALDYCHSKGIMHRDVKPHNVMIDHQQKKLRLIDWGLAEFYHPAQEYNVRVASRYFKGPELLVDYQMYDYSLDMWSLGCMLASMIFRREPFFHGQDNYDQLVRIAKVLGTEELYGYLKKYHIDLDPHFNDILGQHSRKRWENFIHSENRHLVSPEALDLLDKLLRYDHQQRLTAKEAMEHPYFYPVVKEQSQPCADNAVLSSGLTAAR

PRKX (human) = PRKX (human) (UniProt P51817)
STK17B (human) = STK17B (human) (UniProt O94768)
MAP4K2 (human) = MAP4K2 (human) (UniProt Q12851)
CLK4 (human) = CLK4 (human) (UniProt Q9HAZ1)
CLK4 (human), sequence (Q9HAZ1 whole entry, looked up): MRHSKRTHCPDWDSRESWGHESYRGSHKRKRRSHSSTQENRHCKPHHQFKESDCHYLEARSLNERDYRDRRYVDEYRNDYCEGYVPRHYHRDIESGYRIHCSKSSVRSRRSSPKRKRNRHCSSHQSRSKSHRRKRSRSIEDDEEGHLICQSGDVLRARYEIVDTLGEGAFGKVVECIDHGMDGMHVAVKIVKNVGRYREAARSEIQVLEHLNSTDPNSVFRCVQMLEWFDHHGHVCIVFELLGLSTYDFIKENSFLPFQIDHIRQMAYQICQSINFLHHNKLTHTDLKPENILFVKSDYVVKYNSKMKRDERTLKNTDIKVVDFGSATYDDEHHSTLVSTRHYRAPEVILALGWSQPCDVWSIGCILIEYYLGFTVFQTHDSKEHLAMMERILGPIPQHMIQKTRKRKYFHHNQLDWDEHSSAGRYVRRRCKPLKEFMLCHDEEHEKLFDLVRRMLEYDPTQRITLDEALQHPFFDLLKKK

MYLK (human) = MYLK (human) (UniProt Q15746)
MYLK (human), sequence (Q15746 whole entry, looked up): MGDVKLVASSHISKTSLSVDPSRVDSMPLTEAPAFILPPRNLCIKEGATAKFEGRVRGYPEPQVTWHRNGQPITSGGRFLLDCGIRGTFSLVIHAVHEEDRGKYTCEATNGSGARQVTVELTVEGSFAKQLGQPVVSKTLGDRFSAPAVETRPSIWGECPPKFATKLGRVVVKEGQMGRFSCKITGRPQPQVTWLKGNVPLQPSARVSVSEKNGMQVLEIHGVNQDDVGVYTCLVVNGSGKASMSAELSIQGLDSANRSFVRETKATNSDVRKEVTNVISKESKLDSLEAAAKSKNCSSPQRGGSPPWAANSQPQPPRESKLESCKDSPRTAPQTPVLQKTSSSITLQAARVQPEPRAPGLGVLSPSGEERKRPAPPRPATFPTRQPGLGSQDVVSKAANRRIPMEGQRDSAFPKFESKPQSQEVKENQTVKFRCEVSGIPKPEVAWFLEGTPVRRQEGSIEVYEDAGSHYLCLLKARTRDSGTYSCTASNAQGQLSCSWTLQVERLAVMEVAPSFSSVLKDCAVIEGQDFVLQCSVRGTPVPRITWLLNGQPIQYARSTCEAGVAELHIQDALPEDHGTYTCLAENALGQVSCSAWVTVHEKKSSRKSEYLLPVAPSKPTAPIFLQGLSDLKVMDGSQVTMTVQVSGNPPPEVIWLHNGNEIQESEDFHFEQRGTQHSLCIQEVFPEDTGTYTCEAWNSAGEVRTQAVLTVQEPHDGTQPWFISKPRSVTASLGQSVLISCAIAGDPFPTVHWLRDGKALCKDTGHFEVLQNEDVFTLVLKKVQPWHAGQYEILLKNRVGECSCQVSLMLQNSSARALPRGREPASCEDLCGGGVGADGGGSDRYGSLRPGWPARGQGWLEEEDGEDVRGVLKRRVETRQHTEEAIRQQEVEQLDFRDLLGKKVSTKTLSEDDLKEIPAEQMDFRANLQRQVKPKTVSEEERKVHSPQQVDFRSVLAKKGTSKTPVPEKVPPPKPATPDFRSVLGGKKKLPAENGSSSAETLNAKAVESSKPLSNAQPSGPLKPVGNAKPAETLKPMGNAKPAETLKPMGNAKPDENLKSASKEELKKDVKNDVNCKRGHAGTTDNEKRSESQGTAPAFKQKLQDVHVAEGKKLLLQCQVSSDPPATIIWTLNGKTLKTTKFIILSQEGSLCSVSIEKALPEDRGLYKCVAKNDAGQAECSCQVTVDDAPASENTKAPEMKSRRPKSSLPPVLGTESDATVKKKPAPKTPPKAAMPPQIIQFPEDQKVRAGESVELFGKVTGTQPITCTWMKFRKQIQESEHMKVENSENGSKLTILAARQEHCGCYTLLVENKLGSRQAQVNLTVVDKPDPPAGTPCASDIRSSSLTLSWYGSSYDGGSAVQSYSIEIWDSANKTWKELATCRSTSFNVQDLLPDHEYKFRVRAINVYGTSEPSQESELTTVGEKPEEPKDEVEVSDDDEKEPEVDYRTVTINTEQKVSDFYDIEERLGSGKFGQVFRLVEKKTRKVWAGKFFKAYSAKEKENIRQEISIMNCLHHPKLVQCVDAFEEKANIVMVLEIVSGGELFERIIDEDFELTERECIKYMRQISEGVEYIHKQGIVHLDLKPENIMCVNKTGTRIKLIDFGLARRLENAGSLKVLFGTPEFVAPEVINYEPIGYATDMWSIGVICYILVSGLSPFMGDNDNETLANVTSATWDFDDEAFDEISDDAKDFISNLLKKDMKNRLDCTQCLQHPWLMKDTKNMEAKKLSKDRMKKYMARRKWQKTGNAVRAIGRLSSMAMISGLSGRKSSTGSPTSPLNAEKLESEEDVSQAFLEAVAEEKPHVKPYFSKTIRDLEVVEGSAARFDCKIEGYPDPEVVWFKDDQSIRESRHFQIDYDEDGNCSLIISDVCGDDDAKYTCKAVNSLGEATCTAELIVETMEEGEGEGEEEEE

CDKL5 (human) = CDKL5 (human) (UniProt O76039)
STK39 (human) = STK39 (human) (UniProt Q9UEW8)
ACVR2B (human) = ACVR2B (human) (UniProt Q13705)
ACVR2B (human), sequence (Q13705 whole entry, looked up): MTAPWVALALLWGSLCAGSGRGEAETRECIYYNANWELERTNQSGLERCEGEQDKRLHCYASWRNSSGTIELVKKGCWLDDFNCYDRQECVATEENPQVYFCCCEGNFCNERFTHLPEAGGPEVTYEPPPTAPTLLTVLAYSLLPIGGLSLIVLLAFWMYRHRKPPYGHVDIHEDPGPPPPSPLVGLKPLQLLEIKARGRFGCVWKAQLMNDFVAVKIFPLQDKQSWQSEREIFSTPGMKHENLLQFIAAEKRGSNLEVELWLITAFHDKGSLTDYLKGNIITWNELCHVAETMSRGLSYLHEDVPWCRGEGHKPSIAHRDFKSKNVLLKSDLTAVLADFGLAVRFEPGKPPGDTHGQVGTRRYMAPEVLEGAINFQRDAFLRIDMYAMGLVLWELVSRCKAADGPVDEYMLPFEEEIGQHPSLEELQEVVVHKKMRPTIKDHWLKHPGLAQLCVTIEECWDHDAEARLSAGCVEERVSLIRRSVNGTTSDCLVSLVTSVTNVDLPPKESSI

ACVRL1 (human) = ACVRL1 (human) (UniProt P37023)
PI4KB (human) = PI4KB (human) (UniProt Q9UBF8)
[1] = system: RET (human), P07949 [V804M]
[2] = target: JAK1 JH2 pseudokinase (human) (UniProt P23458)
[3] = system: EGFR (human), P00533 [T790M]

EIF2AK1 (human), sequence (Q9BQI3 whole entry, looked up): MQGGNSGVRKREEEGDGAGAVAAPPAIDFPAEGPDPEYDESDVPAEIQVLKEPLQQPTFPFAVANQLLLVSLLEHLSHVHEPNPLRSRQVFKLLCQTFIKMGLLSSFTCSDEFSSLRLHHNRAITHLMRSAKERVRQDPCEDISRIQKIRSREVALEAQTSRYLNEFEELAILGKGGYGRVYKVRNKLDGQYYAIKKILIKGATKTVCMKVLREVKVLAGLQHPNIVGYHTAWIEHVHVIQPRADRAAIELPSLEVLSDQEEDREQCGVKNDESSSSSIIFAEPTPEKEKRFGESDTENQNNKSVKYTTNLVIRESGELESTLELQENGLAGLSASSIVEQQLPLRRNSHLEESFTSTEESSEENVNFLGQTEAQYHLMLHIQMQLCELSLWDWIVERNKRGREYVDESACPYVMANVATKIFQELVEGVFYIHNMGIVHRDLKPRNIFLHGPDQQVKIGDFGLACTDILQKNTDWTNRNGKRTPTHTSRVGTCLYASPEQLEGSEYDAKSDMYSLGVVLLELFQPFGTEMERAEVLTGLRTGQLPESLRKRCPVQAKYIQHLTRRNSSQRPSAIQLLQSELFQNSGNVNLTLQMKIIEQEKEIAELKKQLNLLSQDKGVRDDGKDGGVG
AURKC (human), sequence (Q9UQB9 whole entry, looked up): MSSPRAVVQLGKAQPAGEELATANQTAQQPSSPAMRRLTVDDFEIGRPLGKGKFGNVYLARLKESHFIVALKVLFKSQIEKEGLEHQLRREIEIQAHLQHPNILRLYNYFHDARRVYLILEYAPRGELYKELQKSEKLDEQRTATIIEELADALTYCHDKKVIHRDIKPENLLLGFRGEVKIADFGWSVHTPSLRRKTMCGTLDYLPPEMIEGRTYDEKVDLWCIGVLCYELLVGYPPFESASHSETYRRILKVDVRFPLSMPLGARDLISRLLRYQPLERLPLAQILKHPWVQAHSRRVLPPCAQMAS

SMILES	kinase still bound, per cent of control (EIF2AK1 (human)) [%]	kinase still bound, per cent of control (AURKC (human)) [%]	kinase still bound, per cent of control (NEK4 (human)) [%]	kinase still bound, per cent of control (DCLK3 (human)) [%]	kinase still bound, per cent of control (RAF1 (human)) [%]	kinase still bound, per cent of control (MAPKAPK5 (human)) [%]	kinase still bound, per cent of control (CDK4 CCND1 (human)) [%]	kinase still bound, per cent of control (CSNK1D (human)) [%]	kinase still bound, per cent of control (OXSR1 (human)) [%]	kinase still bound, per cent of control (EPHA5 (human)) [%]	kinase still bound, per cent of control (CDK7 (human)) [%]	kinase still bound, per cent of control (AURKA (human)) [%]	kinase still bound, per cent of control (ADCK4 (human)) [%]	kinase still bound, per cent of control (CSNK1G3 (human)) [%]	kinase still bound, per cent of control (ERBB3 (human)) [%]	kinase still bound, per cent of control (CSNK2A2 (human)) [%]	kinase still bound, per cent of control (PRKX (human)) [%]	kinase still bound, per cent of control (STK17B (human)) [%]	kinase still bound, per cent of control (MAP4K2 (human)) [%]	kinase still bound, per cent of control (CLK4 (human)) [%]	other results
COCC(=O)NC/C=C/c1ccc2ncnc(Nc3ccc(Oc4ccc(C)nc4)c(C)c3)c2c1	100	67	100	83	100	100	100	90	100	100	100	100	98	100	20	100	100	100	100	100	kinase still bound, per cent of control (SRC (human)): 97%; kinase still bound, per cent of control (NTRK2 (human)): 100%; kinase still bound, per cent of control (MAP4K1 (human)): 91%; kinase still bound, per cent of control (MYLK (human)): 87%; kinase still bound, per cent of control (CDKL5 (human)): 100%; kinase still bound, per cent of control (STK39 (human)): 100%; kinase still bound, per cent of control (ACVR2B (human)): 100%; kinase still bound, per cent of control (ACVRL1 (human)): 84%; kinase still bound, per cent of control (PI4KB (human)): 100%
CNC(=O)c1cc(Oc2ccc(NC(=O)Nc3ccc(Cl)c(C(F)(F)F)c3)cc2)ccn1	57	100	81	75	0.05	100	65	100	100	30	4.2	80	100	91	100	100	100	59	100	52	kinase still bound, per cent of control (MAP4K1 (human)): 41%; kinase still bound, per cent of control [1]: 0%; kinase still bound, per cent of control (MYLK (human)): 83%; kinase still bound, per cent of control (CDKL5 (human)): 56%; kinase still bound, per cent of control [2]: 100%; kinase still bound, per cent of control (STK39 (human)): 100%; kinase still bound, per cent of control (ACVR2B (human)): 75%; kinase still bound, per cent of control (ACVRL1 (human)): 77%
NC(=O)Nc1cc(-c2cccc(F)c2)sc1C(=O)N[C@@H]1CCCNC1	88	0.7	22	56	100	0.05	75	15	0.45	4.8	4.9	22	55	4.6	28	5.9	0.7	2	0	2.4	kinase still bound, per cent of control [3]: 0.05%; kinase still bound, per cent of control (SRC (human)): 0.05%; kinase still bound, per cent of control (NTRK2 (human)): 0.35%; kinase still bound, per cent of control [1]: 0%; kinase still bound, per cent of control (MYLK (human)): 3.3%; kinase still bound, per cent of control (CDKL5 (human)): 100%; kinase still bound, per cent of control [2]: 2.5%; kinase still bound, per cent of control (STK39 (human)): 4.4%; kinase still bound, per cent of control (ACVR2B (human)): 3.8%; kinase still bound, per cent of control (ACVRL1 (human)): 76%; kinase still bound, per cent of control (PI4KB (human)): 100%
